Data set [1] concerns CT26. In words: Antitumor activity against mouse CT26 cells implanted in BALB/c mouse assessed as nuclear chromatin margination at 25 to 100 mg/kg, po bid measured for 14 days by hematoxylin and eosin staining based fluorescence microscopic analysis. It is filed as functional, organism-based. The settings on record: dose 25-100 mg/kg, time 14.0 day.
The target of data set [2] is T1, Protein mono-ADP-ribosyltransferase TIPARP (Homo sapiens, UniProt Q7Z3E1).
T1 sequence (Q7Z3E1 whole entry): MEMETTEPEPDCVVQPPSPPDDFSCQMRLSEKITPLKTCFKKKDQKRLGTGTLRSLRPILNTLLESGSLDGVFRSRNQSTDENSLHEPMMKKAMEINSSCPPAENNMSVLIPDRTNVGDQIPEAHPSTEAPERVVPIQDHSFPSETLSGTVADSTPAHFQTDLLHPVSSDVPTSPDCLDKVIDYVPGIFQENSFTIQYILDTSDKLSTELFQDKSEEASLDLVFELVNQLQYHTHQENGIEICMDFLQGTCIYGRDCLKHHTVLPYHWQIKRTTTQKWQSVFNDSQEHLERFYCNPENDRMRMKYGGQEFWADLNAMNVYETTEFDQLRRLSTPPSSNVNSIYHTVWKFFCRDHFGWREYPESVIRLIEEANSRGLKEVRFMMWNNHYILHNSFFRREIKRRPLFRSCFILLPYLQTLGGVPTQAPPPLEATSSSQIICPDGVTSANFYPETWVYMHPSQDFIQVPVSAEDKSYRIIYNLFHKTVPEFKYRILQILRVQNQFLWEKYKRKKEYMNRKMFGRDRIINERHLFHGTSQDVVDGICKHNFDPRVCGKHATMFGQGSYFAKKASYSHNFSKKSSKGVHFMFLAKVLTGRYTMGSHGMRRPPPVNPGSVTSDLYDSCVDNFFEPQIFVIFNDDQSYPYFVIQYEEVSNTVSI
In words: Inhibition of human recombinant N-terminal FLAG tagged PARP7 (400 to 657 end residues) incubated for 1 hr by ELISA assay. A general note: ELISA stands for enzyme-linked immunosorbent assay.

The target in data set [3] is T2, Protein mono-ADP-ribosyltransferase PARP12 (Homo sapiens, UniProt Q9H0J9).
T2 sequence (Q9H0J9 whole entry): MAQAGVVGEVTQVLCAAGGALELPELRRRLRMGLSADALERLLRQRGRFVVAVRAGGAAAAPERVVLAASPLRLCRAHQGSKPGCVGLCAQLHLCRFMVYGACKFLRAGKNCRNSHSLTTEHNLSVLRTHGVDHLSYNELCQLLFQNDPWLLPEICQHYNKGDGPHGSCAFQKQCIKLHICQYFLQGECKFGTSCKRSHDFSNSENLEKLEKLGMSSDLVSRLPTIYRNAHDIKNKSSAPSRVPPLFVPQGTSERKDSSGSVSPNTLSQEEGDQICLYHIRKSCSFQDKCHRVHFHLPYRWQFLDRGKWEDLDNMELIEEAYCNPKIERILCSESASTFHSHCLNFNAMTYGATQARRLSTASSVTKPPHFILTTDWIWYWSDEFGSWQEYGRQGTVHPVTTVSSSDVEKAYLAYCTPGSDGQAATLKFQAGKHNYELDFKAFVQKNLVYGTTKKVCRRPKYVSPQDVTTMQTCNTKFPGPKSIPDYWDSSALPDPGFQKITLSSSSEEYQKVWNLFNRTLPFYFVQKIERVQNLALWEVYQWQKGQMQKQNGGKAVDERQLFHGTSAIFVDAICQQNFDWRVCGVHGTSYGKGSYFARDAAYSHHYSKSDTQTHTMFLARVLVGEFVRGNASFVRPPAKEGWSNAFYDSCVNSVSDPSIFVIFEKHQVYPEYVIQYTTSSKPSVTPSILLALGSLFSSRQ
In words: Inhibition of human recombinant N-terminal GST-tagged PARP12 (500 to 701 end residues) expressed in baculovirus infected Sf9 cells expression system incubated for 1 hr by ELISA assay.

Data set [4] can be described thus: Toxicity in BALB/c mouse implanted with mouse CT26 cells assessed as spleen damage at 100 mg/kg, po measured for 14 days by hematoxylin and eosin staining based fluorescence microscopic analysis. The settings on record: in vivo, 336 h, time 14 day. It is filed as organism-based.
Data set [5] in a line: Oral bioavailability in ICR mouse at 10 mg/kg measured upto 24 hrs by LC-MS/MS analysis. The data set is classed as ADME, organism-based. The settings on record: in vivo.
A short description of data set [6]: Toxicity in BALB/c mouse implanted with mouse CT26 cells assessed as kidney damage at 100 mg/kg, po measured for 14 days by hematoxylin and eosin staining based fluorescence microscopic analysis. The data set is classed as organism-based. The settings on record: in vivo, 336 h, time 14 day.
For data set [7], the system named is CT26. In words: Antitumor activity against mouse CT26 cells implanted in po dosed BALB/c mouse assessed as increase in CXCL10 levels at 100 mg/kg measured after 14 days by RT-qPCR analysis. The data set is classed as functional, organism-based. The following applies: time 14.0 day. In general terms: Real-time PCR tracks product formation cycle by cycle.
Data set [8] can be described thus: AUC(0 to infinity) in ICR mouse at 10 mg/kg, po measured upto 24 hrs by LC-MS/MS analysis. The data set is classed as ADME, organism-based. More on the design: dose 10 mg/kg, time < 24 hrs, route po. The settings on record: in vivo.

Activity calls are given as the source filed them. The rule behind the calls is not given here.

In general, IC50 refers to the midpoint of a concentration-inhibition curve. The bioavailability is dose-corrected exposure relative to a reference, in per cent. Low readings indicate poor availability, high ones good availability. A word on the AUC: it is concentration integrated over time.

Turning to `C[C@@H](CN1CC(C(=O)N2CCN(c3ncc(C(F)(F)F)cn3)CC2)C1)Nc1cn[nH]c(=O)c1C(F)(F)F`, the outcome in the data set with CT26 [1] and in the data set on CT26 [7] was Active. Further, the IC50 in data set [2] was 7.6 nM; in data set [3], 453 nM. Further, the Activity entry in data set [4] and in data set [6] was “Non-Toxic” each time. Moreover, the bioavailability in data set [5] worked out at 95.8%. In data set [8], this compound showed an AUC of 5663.5 ng·h/mL.

For the origin of these results see ChEMBL document CHEMBL5316291 (J Med Chem, 2023).
